Measured values taken from patent US20250064990A1, “METHODS OF SCREENING FOR VMAT2 INHIBITORS” (Neurocrine Biosciences, Inc., priority 2021, published 2025).
Read-outs that look alike come from different tables or passages of the source.

Assays:
VMAT2 = VMAT2 (Macaca fascicularis, UniProt A0A2K5UVB8); test: VMAT2 occupancy in NHP brain after i.v. NBI-750142, [^18F]AV-133 PET; type: in vivo, cynomolgus monkeys (Macaca fascicularis); conditions: for receptor occupancy at 0.084 mg/kg / receptor occupancy at 0.52 mg/kg / receptor occupancy at 0.026 mg/kg / receptor occupancy at 0.26 mg/kg / receptor occupancy at 0.78 mg/kg: cynomolgus monkey
VMAT2, sequence (A0A2K5UVB8 entry or part of it): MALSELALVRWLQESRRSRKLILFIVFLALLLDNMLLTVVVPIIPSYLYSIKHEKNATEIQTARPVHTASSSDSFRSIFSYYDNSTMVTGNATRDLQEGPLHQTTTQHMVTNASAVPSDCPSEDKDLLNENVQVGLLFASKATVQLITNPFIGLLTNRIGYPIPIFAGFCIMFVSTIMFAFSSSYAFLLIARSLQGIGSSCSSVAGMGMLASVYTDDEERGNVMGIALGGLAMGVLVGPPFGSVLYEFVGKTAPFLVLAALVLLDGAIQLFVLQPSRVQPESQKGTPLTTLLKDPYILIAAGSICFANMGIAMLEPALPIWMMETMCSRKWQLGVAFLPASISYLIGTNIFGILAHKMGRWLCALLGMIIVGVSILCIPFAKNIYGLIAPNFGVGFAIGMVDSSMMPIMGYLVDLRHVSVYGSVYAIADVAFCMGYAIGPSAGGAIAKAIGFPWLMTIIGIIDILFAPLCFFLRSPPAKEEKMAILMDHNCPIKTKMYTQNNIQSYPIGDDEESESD
Source text: The aim of this study was to assess the relationship between NBI-750142 dose/plasma concentration and VMAT2 occupancy with [^18F]AV-133 using PET in non-human primate (NIP) brain. A radioligand, [^18F]AV-133, has been used to image and quantify brain VMAT2 in vivo.
Three non-naïve cynomolgus monkeys (Macaca fascicularis) were used in this study. The animals were judged to be in good health before the start of the study. At study origination the animals were 7 (female, EC865), 8 (male, GC786) and 9 (female, LC206) years old and weighed 4.2, 7.0, and 5.4 kg, respectively.
The animals were imaged with [^18F]AV-133 at baseline with vehicle (0.9% saline) and post NBI-750142 blockade on separate days. Vehicle and NBI-750142 were administered as an intravenous (i.v.) bolus followed by a constant infusion over 3 hours. [^18F]AV-133 was injected as an i.v. bolus, 1 h after administration of vehicle/NBI-750142. The design study is summarized below Table 2-1.
Dynamic data were acquired in the MicroPET Focus-220 camera (Siemens Microsystems, Knoxville, TN). Emission data were collected for 120 min post-injection and reconstructed into a series of 33 frames and all standard corrections were applied: normalization, random, scatter and attenuation. Dynamic brain PET images were transferred and analyzed using the image processing PMOD software package v3.802 (PMOD Technologies, Zurich, Switzerland). The PET images were rigidly aligned to a previously acquired animal's brain T1 MRI and then spatially normalized to a common cynomolgus MRI template for anatomical brain region definition.
Volumes of interest (VOIs) defined in the cynomolgus template space (see e.g., Ballanger et al. Neuroimage, 2013, 7:26-43) were applied to the spatially normalized PET images to compute time-activity curves (TACs, kBq/cm^3) for caudate (0.96 cm^3), putamen (1.34 cm^3) and cerebellum (3.81 cm^3). TACs and images (averaged between 60-120 min) were presented in Standard Uptake Value (SUV) units (g/mL) normalized by the weight of the animal and the injected dose.
Non-invasive Logan graphical analysis (start time of fit, t*=35 min) was used to estimate regional non-displaceable binding potential (BPND) using the TACs in the caudate and putamen, with the cerebellar cortex as the reference TAC. BPND was calculated in the in the caudate and putamen across baseline and NBI-750142 scans. Target occupancy was calculated according to Equation 1-1.
where h is the Hill slope (h=1.0) and C is the mean of observed plasma concentrations during the scanning interval (60 to 180 minutes post-dose).

[1] = NBI-750142 plasma concentration in healthy subjects; type: in vivo; conditions: human, 18 h post single oral dose, across cohorts, approximately, read-out: NBI-750142 plasma concentrations at T2

For COc1cc2c(cc1OC)[C@H]1CN(C)[C@H](CC(C)(C)C)CN1CC2 [NBI-750142], the “[^18F]AV-133 BPND” value (VMAT2; animal EC865, Caudate, NBI-750142 0.084 mg/kg) was 2.39, the “[^18F]AV-133 BPND” value (VMAT2; animal EC865, Caudate, NBI-750142 0.52 mg/kg) was 1.01 and the “[^18F]AV-133 BPND” value (VMAT2; animal EC865, Putamen, NBI-750142 0.084 mg/kg) was 3.10. For the same molecule, the “[^18F]AV-133 BPND” value (VMAT2; animal EC865, Putamen, NBI-750142 0.52 mg/kg) was 1.18, the “[^18F]AV-133 BPND” value (VMAT2; animal GC786, Caudate, NBI-750142 0.026 mg/kg) was 3.10 and the “[^18F]AV-133 BPND” value (VMAT2; animal GC786, Caudate, NBI-750142 0.26 mg/kg) was 2.22. For the same molecule, the “[^18F]AV-133 BPND” value (VMAT2; animal GC786, Caudate, NBI-750142 0.78 mg/kg) was 0.33, the “[^18F]AV-133 BPND” value (VMAT2; animal GC786, Putamen, NBI-750142 0.026 mg/kg) was 3.53 and the “[^18F]AV-133 BPND” value (VMAT2; animal GC786, Putamen, NBI-750142 0.26 mg/kg) was 2.39. For the same molecule, the “[^18F]AV-133 BPND” value (VMAT2; animal GC786, Putamen, NBI-750142 0.78 mg/kg) was 0.43, the “[^18F]AV-133 BPND” value (VMAT2; animal LC206, Caudate, NBI-750142 0.26 mg/kg) was 1.42 and the “[^18F]AV-133 BPND” value (VMAT2; animal LC206, Putamen, NBI-750142 0.26 mg/kg) was 1.61. The “[^18F]AV-133 binding post administration of NBI-750142” value (VMAT2; caudate and putamen vs baseline) was “dose-dependent decrease”, the receptor occupancy at 0.084 mg/kg (VMAT2; iv, read-out: % Occ, animal EC865, Caudate, 0.084 mg/kg) was 38.7% and the receptor occupancy at 0.52 mg/kg (VMAT2; iv, read-out: % Occ, animal EC865, Caudate, 0.52 mg/kg) was 74.2%. The receptor occupancy at 0.084 mg/kg (VMAT2; iv, read-out: % Occ, animal EC865, Putamen, 0.084 mg/kg) was 40.9%, the receptor occupancy at 0.52 mg/kg (VMAT2; iv, read-out: % Occ, animal EC865, Putamen, 0.52 mg/kg) was 77.5% and the receptor occupancy at 0.026 mg/kg (VMAT2; iv, read-out: % Occ, animal GC786, Caudate, 0.026 mg/kg) was 31.1%. It also gave a receptor occupancy at 0.26 mg/kg (VMAT2; iv, read-out: % Occ, animal GC786, Caudate, 0.26 mg/kg) of 50.8%, a receptor occupancy at 0.78 mg/kg (VMAT2; iv, read-out: % Occ, animal GC786, Caudate, 0.78 mg/kg) of 92.7% and a receptor occupancy at 0.026 mg/kg (VMAT2; iv, read-out: % Occ, animal GC786, Putamen, 0.026 mg/kg) of 25.8%. It also gave a receptor occupancy at 0.26 mg/kg (VMAT2; iv, read-out: % Occ, animal GC786, Putamen, 0.26 mg/kg) of 49.7%, a receptor occupancy at 0.78 mg/kg (VMAT2; iv, read-out: % Occ, animal GC786, Putamen, 0.78 mg/kg) of 90.9% and a receptor occupancy at 0.26 mg/kg (VMAT2; iv, read-out: % Occ, animal LC206, Caudate, 0.26 mg/kg) of 64.5%. For the same molecule, the receptor occupancy at 0.26 mg/kg (VMAT2; iv, read-out: % Occ, animal LC206, Putamen, 0.26 mg/kg) was 63.7%, the receptor occupancy at 0.084 mg/kg (VMAT2; read-out: Target Occupancy, Mean of Putamen and Caudate, EC865, 0.084 mg/kg) was 40% and the receptor occupancy at 0.52 mg/kg (VMAT2; read-out: Target Occupancy, Mean of Putamen and Caudate, EC865, 0.52 mg/kg) was 76%. It also gave a receptor occupancy at 0.026 mg/kg (VMAT2; read-out: Target Occupancy, Mean of Putamen and Caudate, GC786, 0.026 mg/kg) of 28%, a receptor occupancy at 0.26 mg/kg (VMAT2; read-out: Target Occupancy, Mean of Putamen and Caudate, GC786, 0.26 mg/kg) of 50% and a receptor occupancy at 0.78 mg/kg (VMAT2; read-out: Target Occupancy, Mean of Putamen and Caudate, GC786, 0.78 mg/kg) of 92%. The receptor occupancy at 0.26 mg/kg (VMAT2; read-out: Target Occupancy, Mean of Putamen and Caudate, LC206, 0.26 mg/kg) was 64%, the “50% effective total concentration (EC50) of plasma NBI-750142 for VMAT2 occupancy” value (VMAT2; striatum, Emax model, Hill slope 1, cynomolgus monkey PET) was 0.011 µg/mL and the concentration at 18 h [1] was 0.3 to 10 ng/mL.
